Experimental data reported in patent US20150246902A1, “SUBSTITUED BENZOFURAN COMPOUNDS AND METHODS OF USE THEREOF FOR THE TREATMENT OF VIRAL DISEASES” (priority 2011, published 2015).

Columns and labels:
HCV replicon genotype 1a = assay: microbe, parasite or virus in culture; assay type: cell-based; conditions: Hepatitis C virus, 96 h, HCV genotype 1a replicon cells, 96 hours incubation, NS3/4A ELISA readout
HCV replicon genotype 1b = assay: microbe, parasite or virus in culture; assay type: cell-based; conditions: Hepatitis C virus, 96 h, HCV genotype 1b replicon cells, 96 hours incubation, NS3/4A ELISA readout

SMILES | IC50 (HCV replicon genotype 1a) | IC50 (HCV replicon genotype 1b)
CNC(=O)c1c(-c2ccc(F)cc2)oc2cc(N(C)S(C)(=O)=O)c(-c3ccc4onc(-c5ccccc5)c4c3)cc12 [Compound 83, 2-(4-fluorophenyl)-N-methyl-6-(N-methylmethylsulfonamido)-5-(3-phenylbenzo[d]isoxazol-5-yl)benzofuran-3-carboxamide] | 23.6 nM | 14.7 nM
CNC(=O)c1c(-c2ccc(F)cc2)oc2cc(N(C)S(C)(=O)=O)c(-c3ccc4oc(Cc5ccc(F)cc5)nc4n3)cc12 [Compound 84, 5-(2-(4-fluorobenzyl)oxazolo[4,5-b]pyridin-5-yl)-2-(4-fluorophenyl)-N-methyl-6-(N-methylmethylsulfonamido)benzofuran-3-carboxamide] | 53.7 nM | 8.6 nM
CNC(=O)c1c(-c2ccc(F)cc2)oc2cc(N(C)S(C)(=O)=O)c(-c3cccc4nc(-c5ccccc5)oc34)cc12 [Compound 85] | 460 nM | 235 nM
CNC(=O)c1c(-c2ccc(F)cc2)oc2cc(N(C)S(C)(=O)=O)c(-c3cccc4nc(-c5ccc(F)cc5)oc34)cc12 [Compound 86] | 714 nM | 304 nM
CNC(=O)c1c(-c2ccc(F)cc2)oc2cc(N(C)S(C)(=O)=O)c(-c3ccc4oc(-c5ccc(F)cc5)nc4c3)cc12 [Compound 87] | 51.5 nM | 10.8 nM
CNC(=O)c1c(-c2ccc(F)cc2)oc2cc(N(C)S(C)(=O)=O)c(-c3ccc4nc(-c5ccccc5)cn4c3)cc12 [Compound 88, 2-(4-fluorophenyl)-N-methyl-6-(N-methylmethylsulfonamido)-5-(2-phenylimidazo[1,2-a]pyridin-6-yl)benzofuran-3-carboxamide] | 50.1 nM | 7 nM
CNC(=O)c1c(-c2ccc(F)cc2)oc2cc(N(C)S(C)(=O)=O)c(-c3ccn4cc(-c5ccccc5)nc4c3)cc12 [Compound 89] | 7 nM | 2.7 nM
CNC(=O)c1c(-c2ccc(F)cc2)oc2cc(N(C)S(C)(=O)=O)c(-c3cn4ccnc4cn3)cc12 [Compound 90, 2-(4-fluorophenyl)-5-(imidazo[1,2-a]pyrazin-6-yl)-N-methyl-6-(N-methylmethylsulfonamido)benzofuran-3-carboxamide] | 2180 nM | 120 nM
CNC(=O)c1c(-c2ccc(F)cc2)oc2cc(N(C)S(C)(=O)=O)c(-c3cn4c(-c5ccc(F)cc5)cnc4cn3)cc12 [Compound 91, 2-(4-fluorophenyl)-5-(3-(4-fluorophenyl)imidazo[1,2-a]pyrazin-6-yl)-N-methyl-6-(N-methylmethylsulfonamido)benzofuran-3-carboxamide] | 48.2 nM | 8.1 nM
CNC(=O)c1c(-c2ccc(F)cc2)oc2cc(N(C)S(C)(=O)=O)c(-c3cn4c(-c5ccc(C(F)(F)F)cc5)cnc4cn3)cc12 [Compound 92] | 12.9 nM | 5.1 nM
CNC(=O)c1c(-c2ccc(F)cc2)oc2cc(N(C)S(C)(=O)=O)c(-c3cn4c(-c5ccc(Cl)cc5)cnc4cn3)cc12 [Compound 93] | 47.9 nM | 7.9 nM
CNC(=O)c1c(-c2ccc(F)cc2)oc2cc(N(C)S(C)(=O)=O)c(-c3ccc4ncc(-c5ccc(C(F)(F)F)cc5)n4n3)cc12 [Compound 94, 2-(4-fluorophenyl)-N-methyl-6-(N-methylmethylsulfonamido)-5-(3-(4-(trifluoromethyl)phenyl)imidazo[1,2-b]pyridazin-6-yl)benzofuran-3-carboxamide] | 75.7 nM | 12.3 nM
CNC(=O)c1c(-c2ccc(F)cc2)oc2cc(N(C)S(C)(=O)=O)c(-c3ccc4ncc(-c5ccc(F)cc5)n4n3)cc12 [Compound 95] | 85.9 nM | 44 nM
CNC(=O)c1c(-c2ccc(F)cc2)oc2cc(N(C)S(C)(=O)=O)c(-c3ccc4nnc(-c5ccc(C(F)(F)F)cc5)n4n3)cc12 [Compound 96, 2-(4-fluorophenyl)-N-methyl-6-(N-methylmethylsulfonamido)-5-(3-(4-(trifluoromethyl)phenyl)-[1,2,4]triazolo[4,3-b]pyridazin-6-yl)benzofuran-3-carboxamide] | 34.5 nM | 16.5 nM
CNC(=O)c1c(-c2ccc(F)cc2)oc2cc(N(C)S(C)(=O)=O)c(-c3cc(-c4nc5ncccc5o4)c4occc4c3)cc12 [Compound 97, 2-(4-fluorophenyl)-N-methyl-6-(N-methylmethylsulfonamido)-7′-(oxazolo[4,5-b]pyridin-2-yl)-[5,5′-bibenzofuran]-3-carboxamide] | 2.7 nM | 1.3 nM
CNC(=O)c1c(-c2ccc(F)cc2)oc2cc(N(C)S(C)(=O)=O)c(-c3cc(-c4nc5c(F)cccc5o4)c4occc4c3)cc12 [Compound 98] | 3.7 nM | 4.1 nM
CNC(=O)c1c(-c2ccc(F)cc2)oc2cc(N(C)S(C)(=O)=O)c(-c3cc(-c4cc5ccccc5[nH]4)c4nc(C)cn4c3)cc12 [Compound 99, 5-(8-(1H-indol-2-yl)-2-methylimidazo[1,2-a]pyridin-6-yl)-2-(4-fluorophenyl)-N-methyl-6-(N-methylmethylsulfonamido)benzofuran-3-carboxamide] | 3.1 nM | 5.2 nM
CNC(=O)c1c(-c2ccc(F)cc2)oc2cc(N(C)S(C)(=O)=O)c(-c3ccc4c(n3)nc(-c3ccccc3)n4C(C)(C)C)cc12 [Compound 100, 5-(1-(tert-butyl)-2-phenyl-1H-imidazo[4,5-b]pyridin-5-yl)-2-(4-fluorophenyl)-N-methyl-6-(N-methylmethylsulfonamido)benzofuran-3-carboxamide] | 297 nM | 73 nM
CNC(=O)c1c(-c2ccc(F)cc2)oc2cc(N(C)S(C)(=O)=O)c(-c3ccc4[nH]c(-c5ccccc5)nc4n3)cc12 [Compound 101] | 79.1 nM | 17 nM
CNC(=O)c1c(-c2ccc(F)cc2)oc2cc(N(C)S(C)(=O)=O)c(-c3ccc4[nH]c(-c5ccccc5)nc4c3)cc12 [Compound 102] | 14.6 nM | 5.1 nM
CNC(=O)c1c(-c2ccc(F)cc2)oc2cc(N(C)S(C)(=O)=O)c(-c3ccc4[nH]c(-c5ccccc5)cc4c3)cc12 [Compound 103, 2-(4-fluorophenyl)-N-methyl-6-(N-methylmethylsulfonamido)-5-(2-phenyl-1H-indol-5-yl)benzofuran-3-carboxamide] | 1100 nM | 101 nM
CNC(=O)c1c(-c2ccc(F)cc2)oc2cc(N(C)S(C)(=O)=O)c(-c3ccc4c(ccn4C(=O)OC(C)(C)C)c3)cc12 [Compound 104, tert-butyl 5-(2-(4-fluorophenyl)-3-(methylcarbamoyl)-6-(N-methylmethylsulfonamido)benzofuran-5-yl)-1H-indole-1-carboxylate] | 179 nM | 18.9 nM
CNC(=O)c1c(-c2ccc(F)cc2)oc2cc(N(C)S(C)(=O)=O)c(-c3ccc4cnn(-c5ccc(F)cc5)c4c3)cc12 [Compound 105, 2-(4-fluorophenyl)-5-(1-(4-fluorophenyl)-1H-indazol-6-yl)-N-methyl-6-(N-methylmethylsulfonamido)benzofuran-3-carboxamide] | 5.2 nM | 2.8 nM
CNC(=O)c1c(-c2ccc(F)cc2)oc2cc(N(C)S(C)(=O)=O)c(-c3ccc4cnn(-c5ccc(C(F)(F)F)cc5)c4c3)cc12 [Compound 107] | 8.3 nM | 6.1 nM
CNC(=O)c1c(-c2ccc(F)cc2)oc2cc(N(C)S(C)(=O)=O)c(-c3ccc4cnn(-c5ccc(C#N)cc5)c4c3)cc12 [Compound 108] | 27.6 nM | 12.3 nM
CNC(=O)c1c(-c2ccc(F)cc2)oc2cc(N(C)S(C)(=O)=O)c(-c3cc(F)c4nc(C)n(-c5ccc(F)c(C(N)=O)c5)c4c3)cc12 [Compound 109, 5-(1-(3-carbamoyl-4-fluorophenyl)-4-fluoro-2-methyl-1H-benzo[d]imidazol-6-yl)-2-(4-fluorophenyl)-N-methyl-6-(N-methylmethylsulfonamido)benzofuran-3-carboxamide] | 110 nM | 21.1 nM
CNC(=O)c1c(-c2ccc(F)cc2)oc2cc(N(C)S(C)(=O)=O)c(-c3cc(F)c4ncn(-c5ccc(F)c(C(N)=O)c5)c4c3)cc12 [Compound 110] | 111 nM | 13.8 nM
CNC(=O)c1c(-c2ccc(F)cc2)oc2cc(N(C)S(C)(=O)=O)c(-c3ccc4nnc(-c5ccc(F)cc5)n4c3)cc12 [Compound 111, 2-(4-fluorophenyl)-5-(3-(4-fluorophenyl)-[1,2,4]triazolo[4,3-a]pyridin-6-yl)-N-methyl-6-(N-methylmethylsulfonamido)benzofuran-3-carboxamide] | 4.8 nM | 1.9 nM
CNC(=O)c1c(-c2ccc(F)cc2)oc2cc(N(C)S(C)(=O)=O)c(-c3ccc4ncc(-c5ccc(F)cc5)n4c3)cc12 [Compound 112, 2-(4-fluorophenyl)-5-(3-(4-fluorophenyl)imidazo[1,2-a]pyridin-6-yl)-N-methyl-6-(N-methylmethylsulfonamido)benzofuran-3-carboxamide] | 12.4 nM | 7.1 nM
CNC(=O)c1c(-c2ccc(F)cc2)oc2cc(N(C)S(C)(=O)=O)c(-c3ccc4nc(-c5ccc(F)cc5)cn4n3)cc12 [Compound 113] | 186 nM | 14.9 nM
